Assay results reported in PubChem BioAssay AID2060912 (Molecular Pharmacology Branch, DTP, NCI, 2025).

Tested on: HUVEC/MSC spheroids viability
Assay: Human HUVEC/MSC cell line growth inhibition [KRAS2];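 for viability, T/C: percent of DMSO vehicle control luminescence so 100% = untreated viability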
Settings: for IC50: curve of first compound; for viability, T/C: stronger effect = lower value; active = viability on the fitted dose curve at most 10% of control; inactive = the rest
Summary of the method: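 Stroma-only multicellular spheroids, formed from HUVEC and human MSCs at passages </=5, received RAS-pathway inhibitors with or without a second targeted drug. Dosing followed half-log dilutions from clinically achievable levels.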

[1] = second compound 0.0316 µM, first compound 0.0316 µM
[2] = second compound 0.0316 µM, first compound 0.1 µM
[3] = second compound 0.0316 µM, first compound 0.316 µM
[4] = second compound 0.0316 µM, first compound 1 µM
[5] = second compound 0.0316 µM, first compound 3.16 µM
[6] = second compound 0.0316 µM, first compound 10 µM
[7] = second compound 0.1 µM, first compound 0.0316 µM
[8] = second compound 0.1 µM, first compound 0.1 µM
[9] = second compound 0.1 µM, first compound 0.316 µM
[10] = second compound 0.1 µM, first compound 1 µM
[11] = second compound 0.1 µM, first compound 3.16 µM
[12] = second compound 0.1 µM, first compound 10 µM
[13] = second compound 0.316 µM, first compound 0.0316 µM
[14] = second compound 0.316 µM, first compound 0.1 µM
[15] = second compound 0.316 µM, first compound 0.316 µM
[16] = second compound 0.316 µM, first compound 1 µM
[17] = second compound 0.316 µM, first compound 3.16 µM
[18] = second compound 0.316 µM, first compound 10 µM
[19] = second compound 1 µM, first compound 0.0316 µM
[20] = second compound 1 µM, first compound 0.1 µM
[21] = second compound 1 µM, first compound 0.316 µM
[22] = second compound 1 µM, first compound 1 µM
[23] = second compound 1 µM, first compound 3.16 µM
[24] = second compound 1 µM, first compound 10 µM
[25] = second compound 3.16 µM, first compound 0.0316 µM
[26] = second compound 3.16 µM, first compound 0.1 µM
[27] = second compound 3.16 µM, first compound 0.316 µM
[28] = second compound 3.16 µM, first compound 1 µM
[29] = second compound 3.16 µM, first compound 3.16 µM
[30] = second compound 3.16 µM, first compound 10 µM
[31] = second compound 10 µM, first compound 0.0316 µM
[32] = second compound 10 µM, first compound 0.1 µM
[33] = second compound 10 µM, first compound 0.316 µM
[34] = second compound 10 µM, first compound 1 µM
[35] = second compound 10 µM, first compound 3.16 µM
[36] = second compound 10 µM, first compound 10 µM

CC1COCCN1c1cc(-c2ccnn2C)c2ccnc(-c3ccn[nH]3)c2n1 (stereo unspecified) + C=CC(=O)N1CCN(c2nc(=O)n(-c3c(C)ccnc3C(C)C)c3nc(-c4c(O)cccc4F)c(F)cc23)C(C)C1
> 3000 nM: IC50 (second compound 0.1 µM) | IC50 (second compound 1 µM) | IC50 (second compound 3.16 µM) | IC50 (second compound 10 µM)
2750 nM: IC50 (second compound 0.316 µM)
2520 nM: IC50 (second compound 0.0316 µM)
inactive: viability, T/C (second compound 0.0316 µM, first compound 0.00949 µM) 82.3% | viability, T/C (second compound 0.0316 µM, first compound 0.03 µM) 97.5% | viability, T/C (second compound 0.0316 µM, first compound 0.0949 µM) 75% | viability, T/C (second compound 0.0316 µM, first compound 0.3 µM) 73.2% | viability, T/C (second compound 0.0316 µM, first compound 0.949 µM) 64.6% | viability, T/C (second compound 0.0316 µM, first compound 3 µM) 47.4% | viability, T/C (second compound 0.1 µM, first compound 0.00949 µM) 113% | viability, T/C (second compound 0.1 µM, first compound 0.03 µM) 83.7% | viability, T/C (second compound 0.1 µM, first compound 0.0949 µM) 96.6% | viability, T/C (second compound 0.1 µM, first compound 0.3 µM) 83.2% | viability, T/C (second compound 0.1 µM, first compound 0.949 µM) 50.7% | viability, T/C (second compound 0.1 µM, first compound 3 µM) 51.8% | viability, T/C (second compound 0.316 µM, first compound 0.00949 µM) 114% | viability, T/C (second compound 0.316 µM, first compound 0.03 µM) 105% | viability, T/C (second compound 0.316 µM, first compound 0.0949 µM) 94.2% | viability, T/C (second compound 0.316 µM, first compound 0.3 µM) 75.5% | viability, T/C (second compound 0.316 µM, first compound 0.949 µM) 63.3% | viability, T/C (second compound 0.316 µM, first compound 3 µM) 48.6% | viability, T/C (second compound 1 µM, first compound 0.00949 µM) 108% | viability, T/C (second compound 1 µM, first compound 0.03 µM) 119% | viability, T/C (second compound 1 µM, first compound 0.0949 µM) 96.2% | viability, T/C (second compound 1 µM, first compound 0.3 µM) 76.3% | viability, T/C (second compound 1 µM, first compound 0.949 µM) 76% | viability, T/C (second compound 1 µM, first compound 3 µM) 54.6% | viability, T/C (second compound 3.16 µM, first compound 0.00949 µM) 103% | viability, T/C (second compound 3.16 µM, first compound 0.03 µM) 117% | viability, T/C (second compound 3.16 µM, first compound 0.0949 µM) 101% | viability, T/C (second compound 3.16 µM, first compound 0.3 µM) 88.5% | viability, T/C (second compound 3.16 µM, first compound 0.949 µM) 73.2% | viability, T/C (second compound 3.16 µM, first compound 3 µM) 74.8% | viability, T/C (second compound 10 µM, first compound 0.00949 µM) 121% | viability, T/C (second compound 10 µM, first compound 0.03 µM) 123% | viability, T/C (second compound 10 µM, first compound 0.0949 µM) 115% | viability, T/C (second compound 10 µM, first compound 0.3 µM) 102% | viability, T/C (second compound 10 µM, first compound 0.949 µM) 72% | viability, T/C (second compound 10 µM, first compound 3 µM) 77.1%

CC1OCC2(CCN(c3cnc(Sc4ccnc(N)c4Cl)c(N)n3)CC2)C1N (stereo unspecified) + C=CC(=O)N1CCN(c2nc(=O)n(-c3c(C)ccnc3C(C)C)c3nc(-c4c(O)cccc4F)c(F)cc23)C(C)C1
inactive: viability, T/C [1] 118% | viability, T/C [2] 101% | viability, T/C [3] 105% | viability, T/C [4] 80.5% | viability, T/C [5] 70.1% | viability, T/C [6] 70.5% | viability, T/C [7] 110% | viability, T/C [8] 107% | viability, T/C [9] 97.2% | viability, T/C [10] 84.3% | viability, T/C [11] 72% | viability, T/C [12] 67.9% | viability, T/C [13] 96.8% | viability, T/C [14] 129% | viability, T/C [15] 92.1% | viability, T/C [16] 88% | viability, T/C [17] 81.8% | viability, T/C [18] 78.5% | viability, T/C [19] 101% | viability, T/C [20] 126% | viability, T/C [21] 105% | viability, T/C [22] 99.7% | viability, T/C [23] 89% | viability, T/C [24] 77.5% | viability, T/C [25] 116% | viability, T/C [26] 136% | viability, T/C [27] 111% | viability, T/C [28] 92.7% | viability, T/C [29] 109% | viability, T/C [30] 71.3% | viability, T/C [31] 104% | viability, T/C [32] 121% | viability, T/C [33] 120% | viability, T/C [34] 98.3% | viability, T/C [35] 95.5% | viability, T/C [36] 54.7%
> 10000 nM: IC50 (second compound 0.0316 µM) | IC50 (second compound 0.1 µM) | IC50 (second compound 0.316 µM) | IC50 (second compound 1 µM) | IC50 (second compound 3.16 µM) | IC50 (second compound 10 µM)

Cn1nccc1Nc1nccc(-c2cc3c(s2)C(C)(C)N(CCN2CCOCC2)C3=O)n1 + C=CC(=O)N1CCN(c2nc(=O)n(-c3c(C)ccnc3C(C)C)c3nc(-c4c(O)cccc4F)c(F)cc23)C(C)C1
2650 nM: IC50 (second compound 0.1 µM)
2980 nM: IC50 (second compound 0.0316 µM)
inactive: viability, T/C [1] 86.7% | viability, T/C [2] 102% | viability, T/C [3] 112% | viability, T/C [4] 93.3% | viability, T/C [5] 47.7% | viability, T/C [7] 105% | viability, T/C [8] 108% | viability, T/C [9] 105% | viability, T/C [10] 93.4% | viability, T/C [11] 42.1% | viability, T/C [13] 99.2% | viability, T/C [14] 114% | viability, T/C [15] 98.6% | viability, T/C [16] 99.6% | viability, T/C [17] 42.2% | viability, T/C [19] 99.8% | viability, T/C [20] 118% | viability, T/C [21] 129% | viability, T/C [22] 90.2% | viability, T/C [23] 51.1% | viability, T/C [25] 115% | viability, T/C [26] 129% | viability, T/C [27] 112% | viability, T/C [28] 84% | viability, T/C [29] 45.3% | viability, T/C [31] 150% | viability, T/C [32] 128% | viability, T/C [33] 135% | viability, T/C [34] 106% | viability, T/C [35] 37%
active: viability, T/C [6] 5.76% | viability, T/C [12] 9.02% | viability, T/C [18] 5.77% | viability, T/C [24] 4.48% | viability, T/C [30] 4.12% | viability, T/C [36] 3.03%
3090 nM: IC50 (second compound 1 µM)
2660 nM: IC50 (second compound 3.16 µM)
2560 nM: IC50 (second compound 10 µM)
2700 nM: IC50 (second compound 0.316 µM)
